# Results published in US20020015941A1, “Method for treatment of neurodegenerative diseases” (The General Hospital Corporation, priority 2000, published 2002).
# Like-named read-outs stand apart in the source and are kept apart here.
# Assays:
# [1] = system: capacitative Ca2+ entry (CCE) in SY5Y cells; format: cell-based, human
# [2] = system: capacitative calcium entry (CCE) in CHO cells; test: CCE by ratiometric Ca2+ imaging in CHO cells; format: cell-based, Chinese hamster
# [3] = system: CHO and CHO-APP cells; details: Aβ42 pre-treatment
# Experimental: The Aβ42 peptides were obtained from Bachem and dissolved in PBS at 1 mg/ml directly before use.
# [4] = system: IP3-elicited release of Ca2+ from internal stores; details: literature; cited from earlier work
# [5] = system: capacitative calcium entry (CCE); details: literature; cited from earlier work
# [6] = system: total Aβ and Aβ42 in D257A-PS1 CHO cells; test: Aβ generation in CHO cells stably expressing APP and D257A-PS1; format: cell-based, Chinese hamster
# [7] = system: Aβ42/Aβtotal in CHO cells stably overexpressing human APP; test: Aβ sandwich ELISA, CHO cells stably overexpressing human APP; format: cell-based, Chinese hamster; details: CHO-APP, indicated concentrations for 12 hours (FIG. 5C)
# [8] = system: CHO or 293 cells stably expressing human APP
# [9] = system: ICRAC channels in wild-type PS1 CHO cells; test: ICRAC by whole-cell patch clamp in stable CHO cells; format: cell-based, Chinese hamster; details: wild-type PS1 CHO cells pretreated with 10 μM SKF96365 for 30 min
# [10] = system: secreted APP-α in 293 cells stably expressing human APP; test: Secreted APPs-α by immunoprecipitation (22C11) and blot (6E10); format: cell-based; details: SKF96365 treatment, 12 hour
# [11] = system: voltage-operated Ca2+ channels; details: literature; cited from earlier work
compound,measurement,setting,value
ω-conotoxin GVIA,Ca2+ influx (CCE) after pretreatment,[1],virtually no effect
"Aβ42: 42-amino acid version of amyloid β-peptide, obtained from Bachem",CCE response after Aβ42 pre-treatment,[2]; CHO and CHO-APP cells pre-incubated with 20 PM Aβ42 for 3 hours,no detectable effect
same,cell viability,[3],not affected
Calyculin A,Ca2+ influx (CCE) after pretreatment,[1],blocked
"C=C1[C@@H](C)[C@H]2[C@H](Cc3ccccc3)NC(=O)[C@]23[C@H](OC(C)=O)/C=C/[C@@](C)(O)C(=O)[C@@H](C)C/C=C/[C@H]3[C@@H]1O [CytoD, Cytochalasin D]",IP3-elicited release of Ca2+ from internal stores,[4],impairs
same,effect on CCE,[5],no effect
same,Ca2+ influx in wild-type PS1 or M146L-PS1 cells,[1],essentially no effect
COc1ccc(CCCOC(Cn2ccnc2)c2ccc(OC)cc2)cc1 (centres unmarked) [SKF96365],generation of Aβ42 in D257A-PS1 cells,[6]; 50 μM SKF96365,did not restore
same,generation of total Aβ in D257A-PS1 cells,[6]; 50 μM SKF96365,did not restore
same,relative Aβ42 levels as share of total Aβ levels in D257A cells,[6]; following treatment with SKF96365 (50 μM),greater than 90%
same,degree of CCE reduction in D257A-PS1 cells compared to wild-type PS1 cells,"[2]; 50 μM SKF96365, 12 hrs",much less
same,Aβ42-promoting effect versus concentration,[7],dose-dependent
same,cell viability,[8],did not alter
same,ICRAC (peak current density),[9],virtually eliminated
same,secreted APP-α levels,[10],did not alter
same,effect on voltage-operated Ca2+ channels,[11],minor inhibitory effect
same,Ca2+ influx (CCE) after pretreatment,"[1]; 100 μM SKF96365 1 hr, 100 nM CalyA 20 min, nifedipine 1 μM, ω-conotoxin GVIA 2 μM, prior to induction of CCE",blocked
